In patent US12663426B2, “Method and composition for measurement of nitric oxide” (The University of Chicago, priority 2019, dated 2026):
Where two headings read alike, the source gives them in different places.

What was measured:
murine TLR-9 = target: T1, murine TLR-9 (Mus musculus, UniProt Q9EQU3); assay: Endosomal NO in primary mouse microglia with NOckout^mCpG; assay type: cell-based; details: primary microglial cells, NOckout^mCpG 500 nM 120 min, without or with 200 nM BAF
T1 construct: endogenous in cells; host or cells: primary microglia from C57BL/6 mice
T1 sequence (Q9EQU3 26-1032): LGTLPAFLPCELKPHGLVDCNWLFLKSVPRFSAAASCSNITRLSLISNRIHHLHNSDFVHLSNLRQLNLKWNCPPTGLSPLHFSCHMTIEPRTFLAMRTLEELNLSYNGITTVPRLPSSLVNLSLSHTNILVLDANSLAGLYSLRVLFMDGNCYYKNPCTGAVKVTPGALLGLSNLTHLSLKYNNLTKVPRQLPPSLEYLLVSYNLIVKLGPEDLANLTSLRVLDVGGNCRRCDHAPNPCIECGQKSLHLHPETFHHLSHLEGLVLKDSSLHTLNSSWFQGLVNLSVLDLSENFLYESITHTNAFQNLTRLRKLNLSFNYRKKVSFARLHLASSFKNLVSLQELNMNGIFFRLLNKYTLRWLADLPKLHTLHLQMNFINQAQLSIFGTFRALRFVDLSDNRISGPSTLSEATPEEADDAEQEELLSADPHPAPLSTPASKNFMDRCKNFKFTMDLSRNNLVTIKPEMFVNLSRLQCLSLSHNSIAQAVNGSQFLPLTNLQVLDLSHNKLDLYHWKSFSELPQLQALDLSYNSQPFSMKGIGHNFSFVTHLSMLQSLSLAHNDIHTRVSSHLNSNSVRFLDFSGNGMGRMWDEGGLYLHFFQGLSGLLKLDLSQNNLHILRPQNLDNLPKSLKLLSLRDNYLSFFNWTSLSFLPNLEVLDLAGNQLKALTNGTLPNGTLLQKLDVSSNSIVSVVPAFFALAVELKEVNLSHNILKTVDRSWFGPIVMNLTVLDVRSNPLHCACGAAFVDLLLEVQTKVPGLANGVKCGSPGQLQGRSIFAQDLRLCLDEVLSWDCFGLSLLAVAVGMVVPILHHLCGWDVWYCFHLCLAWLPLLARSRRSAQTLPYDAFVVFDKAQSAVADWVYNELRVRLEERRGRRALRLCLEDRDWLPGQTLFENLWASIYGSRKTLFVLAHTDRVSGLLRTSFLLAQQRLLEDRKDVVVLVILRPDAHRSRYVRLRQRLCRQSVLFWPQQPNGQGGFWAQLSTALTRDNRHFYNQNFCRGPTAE
Description: Image analysis: A MATLAB based program called Findosome was used to calculate the (G/R) values of individual endosomes from the acquired images. Maximum Z-projected images created using Fiji (NIH) were fed to Findosome to pick endosomal compartments as ROI corresponding to individual endosomes based on the A647 channel intensity. For each ROI, the program calculates fluorescence intensities both in the normalizing channel (A647, R) as well as in the DAR (G) channel. The results were exported as an excel file. From the results, (G/R) value for individual endosomes can be calculated. Phagosomal (G/R) values from the zebrafish microglia are calculated using Fiji software. Images were imported to Fiji and maximum Z-projected images were created. ROI were manually drawn around clearly identifiable phagosomes using the normalizing channel A647 intensity. Fluorescence intensities in A647 and DAR channels were calculated. G/R values are either represented as heat map images using Fiji or as bar graph using Origin software. Intracellular measurements of (G/R) values was performed in GFP colocalized microglia. For (G/R) ratio quantification experiments, only those vesicles that are present in both green (G) and red (R) channels were considered. […]

[1] = Decomposition / NO release of DEA NONOate; assay type: physicochemical
Description: (§1) Sub-cellular nitric oxide quantification. […] (FIG. 16).
Additionally, DEA-NONOate concentration follows first order decay and can be described with initial DEA-NONOate concentration (indicated by [NONOate]0).
Next, in order to measure the relative activities of NOS3 at the plasma membrane and the TGN, a method was developed to quantify sub-cellular NO generated due to NOS3 activity. […] As the effective concentration of NO at any time, [NO]eff, changes with time, NOS3 activity is best quantified by the rate of NO production. Therefore, the decomposition rate constant (k1 sec^−1) of DEA-NONOate was first measured from its UV absorbance at 250 nm, to obtain [NO]eff over time in solution for fixed DEA-NONOate concentrations (FIG. 17a, Methods) (Ramamurthi, A. & Lewis, R. S. Measurement and modeling of nitric oxide release rates for nitric oxide donors. Chem. Res. Toxicol. 10, 408-413 (1997)). […]
In vitro fluorescence measurements: All fluorescence studies were carried out on a Fluoromax-4 (Horiba Scientific, Japan) spectrophotometer. […] Fluorescence emission spectra were collected in the range of 560-620 nm (slit width=2 nm) for DAR and 655-700 nm (slit width=2 nm) for A647N. […] Fluorescence signal from NOckout. […] was recorded sequentially in the DAR (G) and A647N (R) channels before and after the addition of DEANONOate (30 μM) at timed intervals (30 s). […]

[2] = 37° C., 100 mM phosphate buffer (pH 7.4); cited from earlier work
NOS2 = target: T2, NOS2 (Mus musculus, UniProt P29477); assay: In cellulo specificity of NOckout to NO in LPS primed J774A.1 cells; assay type: cell-based; details: J774 cells, LPS; VAS2870 10 μM, ABAH 50 μM
T2 construct: J774A.1 cells were treated with 1 μg/mL LPS for 12 h prior to the addition of NOckout; endogenous in cells; host or cells: J774A.1 macrophages primed with LPS
Experimental: Pharmacological inhibition: Pharmacological inhibition of different enzymes were performed by employing known inhibitors. […] Cells were bathed in inhibitors 1 h prior to the addition of NOckout probes during the specificity experiment performed in J774A.1 cells.
In cellulo specificity of NOckout to NO: In cellulo specificity of the NOckout probe towards NO^− was validated in J774A.1 cells. […] J774A.1 cells were treated with 1 μg/mL LPS for 12 h prior to the addition of NOckout (500 nM in HBSS) either in the presence or in absence of specific inhibitors. LPS addition was employed to induce the expression of NOS2NOX and MPO. […] After 90 minutes of incubation with the NOckout culture media was removed from the cells and three washes were performed using HBSS to remove extracellular NOckout before proceeding to the fluorescence imaging. […]
The in-cell specificity of NOckout can be evaluated by measuring the contribution of the reactive species produced by NOX, MPO and NOS2 to the observed fold change in G/R ratio upon LPS stimulation. […] As NOS2 activity is not pan-endosomal, specificity is given by quantifying the percentage of endosomes that show G/R values higher than the mean G/R value in endosomes of unstimulated, NOS2 inhibited cells, as the latter corresponds to basal endosomal NO levels (FIG. 6c).

NOS3 = assay: Sub-cellular nitric oxide quantification (rate of NO production, in-cell calibration); assay type: cell-based; details: T-47D cells, 1 μM thapsigargin
Experimental: as §1
After characterizing NO releasing profile of DEA NONOate, cellular NO production was compared to NO released from DEA-NONOate. […] As expected G/B intensity increases over time and the rate of increase is proportional to DEA-NONOate concentration. Then 1 μM thapsigargin was added to get the initial rate of NO production at the plasma membrane.
Note this only applies to the initial phase of DAR activation where [DAR] can be considered as constant. From the predicted [NO] from DEA-NONOate, the tested concentration of NONOate, the first 30 s [NO] increases with t. […]
Using the calibration curve, the initial G/B rates from thapsigargin treated cells is plugged in and the plasma membrane NO production was measured to be 576±61 nM/s (FIG. 3e).
Next, in order to measure the relative activities of NOS3 at the plasma membrane and the TGN, a method was developed to quantify sub-cellular NO generated due to NOS3 activity. […] As the effective concentration of NO at any time, [NO]eff, changes with time, NOS3 activity is best quantified by the rate of NO production. […]
An in-cell calibration protocol was developed to measure the rate of NO production for various concentrations of DEA-NONOate using NOckout probes. […] NOckout^PM labeled cells was then treated with 1 μM thapsigargin and measured the rate of NO production given by the increasing G/B ratio. […]

With `CO/C1=C\C(C)=C\[C@@H](C)[C@@H](O)[C@@H](C)C/C(C)=C/C=C/[C@H](OC)[C@@H]([C@@H](C)[C@@H](O)[C@H](C)[C@@]2(O)C[C@@H](O)[C@H](C)[C@@H](C(C)C)O2)OC1=O` [BAF] the “endosomes with G/R value≥0.45” value (murine TLR-9) was 50%.
For `CCN(CC)/[N+]([O-])=N/O.CCNCC` [DEA NONOate, Diethylamine NONOate], the “k1, decomposition rate constant” value ([1]; calculated from UV absorption at 250 nm) is given as 0.00131 s⁻¹, the half-life ([1]; pH 7.4 at 25° C.) is given as “about 9 min” and the half-life [2] is given as 2 min.
In the case of `c1ccc(Cn2nnc3c(Sc4nc5ccccc5o4)ncnc32)cc1` [VAS2870], the “NO signal of NOckout with inhibitor” value (NOS2) is reported as “did not reduce NO signal”.
For `C/C=C(/C)C(=O)O[C@H]1C(C)=C2[C@H]([C@@H]1OC(=O)CCCCCCC)[C@@](C)(OC(C)=O)C[C@H](OC(=O)CCC)[C@@]1(O)[C@H]2OC(=O)[C@@]1(C)O` [thapsigargin], the “rate of NO production at the plasma membrane” value (NOS3; NOckout^PM) was 576 ± 61 nM/s and the “initial rate of NO production at the TGN” value (NOS3; NOckout^TGN) was 74 ± 41 nM/s.
